From US5800838A, “Composition that inhibits or destroys at least one unicellular living organism containing fluorine F- and Lithium li+” (priority 1987, dated 1998) come the findings set out here.

Like-named read-outs stand apart in the source and are kept apart here.

In assay [1] the test system is Pseudomonas aeruginosa. The experiment in a line: Resistance of Pseudomonas aeruginosa to antiseptics in terms of water hardness and proteins.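 Note: R means colony growth observed and S means no significant growth; key: R: resistant (a growth of colonies was observed); S: sensitive (no significant growth was observed).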 Format: cell-based. The protocol:
The resistance of Pseudomonas aeruginosa to various reputedly bactericidal active principles or commercial antiseptics was studied in terms of the hardness of the water and the presence or absence of proteins. The same trial was carried out on the foaming paste according to the invention (see Example 15).

The subject of assay [2] is Pseudomonas aeruginosa. Nature of the assay: MIC of antibiotics by microdilution in liquid medium on plates (Example 18). Format: cell-based. The settings on record: for MIC: Pseudomonas aeruginosa. As to the method: The unicellular living organism chosen for the trials is Pseudomonas aeruginosa (wild-type strain originating from hospital sources).
The same methodology as for Examples 11 and 12 was follows. Bacteriostatic analyses were performed with a number of antibiotics belonging to benzylpenicillins, and aminopenicillins, and first and second generation cephalosporins, namely:
The determination of the MIC was carried out by the microdilution method in liquid medium on plates. Aqueous solutions of each antibiotic are prepared in MUELLER HINION broth, to obtain dilutions in a geometric ratio of 2. The solvent is sterile double-distilled water.
The preparation of the bacterial inoculum is made with a culture of Pseudomonas aeruginosa, with agitation on a water bath at 37° C. for 4 to 6 hours, giving 10^6 bacteria/ml.
Three trials were performed per antibiotic and per bacterial inoculum. The trials were performed first with the antibiotics alone (trials a).sctn., and then with the addition of a dose of 1 mg/l of an aqueous solution of lithium fluoride (trials b).sctn. to the dilution of each one in every cup of every plate.
(Broth dilution looks for growth in wells or tubes with falling amounts of substance.)

Setting [3] is: 0.2 ml inoculum, contact time 10 mn, distilled water, P+.
[4] abbreviates: 0.2 ml inoculum, contact time 10 mn, distilled water, P-.
[5] abbreviates: 0.2 ml inoculum, contact time 10 mn, hard water, P+.
The mark [6] stands for this setting: 0.2 ml inoculum, contact time 10 mn, hard water, P-.
[7] abbreviates: 0.4 ml inoculum, contact time 20 mn, distilled water, P+.
Setting [8] is: 0.4 ml inoculum, contact time 20 mn, distilled water, P-.
Where [9] appears, read: 0.4 ml inoculum, contact time 20 mn, hard water, P+.
Where [10] appears, read: 0.4 ml inoculum, contact time 20 mn, hard water, P-.
The mark [11] stands for this setting: 0.6 ml inoculum, contact time 30 mn, distilled water, P+.
Where [12] appears, read: 0.6 ml inoculum, contact time 30 mn, distilled water, P-.
[13] abbreviates: 0.6 ml inoculum, contact time 30 mn, hard water, P+.
[14] abbreviates: 0.6 ml inoculum, contact time 30 mn, hard water, P-.
[15] abbreviates: + LiF 1 mg/l, strain lic R βLac^+ OXA, read-out: MIC (average MIC value).
Where [16] appears, read: + LiF 1 mg/l, strain lic R βLac^+ PSE, read-out: MIC (average MIC value).
[17] abbreviates: + LiF 1 mg/l, strain lic R βLac^+ TEM, read-out: MIC (average MIC value).
Where [18] appears, read: + LiF 1 mg/l, strain lic R βLac^+ cephalosporinase, read-out: MIC (average MIC value).
Setting [19] is: + LiF 1 mg/l, strain lic S βLac^- (first column), read-out: MIC (average MIC value).
The mark [20] stands for this setting: + LiF 1 mg/l, strain lic S βLac^- (second column), read-out: MIC (average MIC value).
[21] abbreviates: alone, strain lic R βLac^+ OXA, read-out: MIC (average MIC value).
Where [22] appears, read: alone, strain lic R βLac^+ PSE, read-out: MIC (average MIC value).
The mark [23] stands for this setting: alone, strain lic R βLac^+ TEM, read-out: MIC (average MIC value).
Setting [24] is: alone, strain lic R βLac^+ cephalosporinase, read-out: MIC (average MIC value).
[25] abbreviates: alone, strain lic S βLac^- (first column), read-out: MIC (average MIC value).
[26] abbreviates: alone, strain lic S βLac^- (second column), read-out: MIC (average MIC value).

`O=S(=O)([O-])[O-].[Zn+2]` [Zinc sulphate]: the resistance entry in the assay with Pseudomonas aeruginosa [1] (setting [3]), in the assay with Pseudomonas aeruginosa [1] (setting [4]), in the assay with Pseudomonas aeruginosa [1] (setting [5]), in the assay on Pseudomonas aeruginosa [1] (setting [6]), in the assay with Pseudomonas aeruginosa [1] (setting [7]) and in the assay on Pseudomonas aeruginosa [1] (setting [8]) was “R” each time. Further, the resistance entry with Pseudomonas aeruginosa [1] (setting [9]), in the assay with Pseudomonas aeruginosa [1] (setting [10]), with Pseudomonas aeruginosa [1] (setting [11]), in the assay on Pseudomonas aeruginosa [1] (setting [12]), in the assay on Pseudomonas aeruginosa [1] (setting [13]) and in the assay on Pseudomonas aeruginosa [1] (setting [14]) was “R” each time.
Consider `CCN1CCN(C(=O)N[C@@H](C(=O)N[C@@H]2C(=O)N3[C@@H]2SC(C)(C)[C@@H]3C(=O)O)c2ccccc2)C(=O)C1=O` [PIPERACILLIN, piperacillin], for which the MIC in the assay on Pseudomonas aeruginosa [2] (setting [15]) was 64 µg/mL; in the assay with Pseudomonas aeruginosa [2] (setting [16]), 64 µg/mL; in the assay on Pseudomonas aeruginosa [2] (setting [17]), 64 µg/mL; in the assay on Pseudomonas aeruginosa [2] (setting [18]) it was 128 µg/mL; in the assay on Pseudomonas aeruginosa [2] (setting [19]) it was 8 µg/mL; in the assay with Pseudomonas aeruginosa [2] (setting [20]) it was 8 µg/mL. The MIC came out at 64 µg/mL with Pseudomonas aeruginosa [2] (setting [21]); 128 µg/mL with Pseudomonas aeruginosa [2] (setting [22]); 64 µg/mL with Pseudomonas aeruginosa [2] (setting [23]); 128 µg/mL in the assay with Pseudomonas aeruginosa [2] (setting [24]); 8 µg/mL in the assay with Pseudomonas aeruginosa [2] (setting [25]); 16 µg/mL with Pseudomonas aeruginosa [2] (setting [26]).
In the case of `CC1(C)S[C@@H]2[C@H](NC(=O)[C@H](C(=O)O)c3ccsc3)C(=O)N2[C@H]1C(=O)O` [ticarcillin], the “number of strains resistant, of 958 strains tested” value in the assay with Pseudomonas aeruginosa [2] is 235. Besides, the MIC in the assay with Pseudomonas aeruginosa [2] (setting [21]) was determined as 512 µg/mL; in the assay on Pseudomonas aeruginosa [2] (setting [22]), 4100 µg/mL; in the assay on Pseudomonas aeruginosa [2] (setting [23]), 1020 µg/mL; with Pseudomonas aeruginosa [2] (setting [24]), 256 µg/mL; with Pseudomonas aeruginosa [2] (setting [25]) it was 32 µg/mL; in the assay on Pseudomonas aeruginosa [2] (setting [26]), 512 µg/mL.
On to `CO/N=C(\C(=O)N[C@@H]1C(=O)N2C(C(=O)O)=C(CSc3nc(=O)c(=O)[nH]n3C)CS[C@H]12)c1csc(N)n1` [CEFTRIAXONE, ceftriaxone], for which the MIC in the assay with Pseudomonas aeruginosa [2] (setting [15]) turned out to be 32 µg/mL; in the assay on Pseudomonas aeruginosa [2] (setting [16]) it was 16 µg/mL; with Pseudomonas aeruginosa [2] (setting [17]) it was 32 µg/mL; with Pseudomonas aeruginosa [2] (setting [18]), 128 µg/mL; in the assay with Pseudomonas aeruginosa [2] (setting [19]), 8 µg/mL; with Pseudomonas aeruginosa [2] (setting [20]), 16 µg/mL. Further, the MIC in the assay on Pseudomonas aeruginosa [2] (setting [21]) turned out to be 32 µg/mL; with Pseudomonas aeruginosa [2] (setting [22]), 32 µg/mL; with Pseudomonas aeruginosa [2] (setting [23]) it was 32 µg/mL; with Pseudomonas aeruginosa [2] (setting [24]) it was 256 µg/mL; in the assay on Pseudomonas aeruginosa [2] (setting [25]), 16 µg/mL; in the assay on Pseudomonas aeruginosa [2] (setting [26]), 32 µg/mL.
`NC(=O)c1cc[n+](CC2=C(C(=O)O)N3C(=O)[C@@H](NC(=O)[C@@H](c4ccccc4)S(=O)(=O)[O-])[C@H]3SC2)cc1` [CEFSULODIN, cefsulodin]: the MIC with Pseudomonas aeruginosa [2] (setting [15]) worked out at 16 µg/mL; with Pseudomonas aeruginosa [2] (setting [16]) it was 16 µg/mL; in the assay with Pseudomonas aeruginosa [2] (setting [17]), 32 µg/mL; with Pseudomonas aeruginosa [2] (setting [18]), 64 µg/mL; in the assay with Pseudomonas aeruginosa [2] (setting [19]), 4 µg/mL; in the assay with Pseudomonas aeruginosa [2] (setting [20]), 16 µg/mL. Further, the MIC in the assay with Pseudomonas aeruginosa [2] (setting [21]) is 16 µg/mL; with Pseudomonas aeruginosa [2] (setting [22]), 32 µg/mL; with Pseudomonas aeruginosa [2] (setting [23]), 32 µg/mL; in the assay with Pseudomonas aeruginosa [2] (setting [24]), 64 µg/mL; with Pseudomonas aeruginosa [2] (setting [25]), 4 µg/mL; in the assay on Pseudomonas aeruginosa [2] (setting [26]), 16 µg/mL.
In the case of `CC1(C)S[C@@H]2[C@H](NC(=O)[C@H](NC(=O)N3CCNC3=O)c3ccccc3)C(=O)N2[C@H]1C(=O)O` [AZLOCILLIN, azlocillin], the MIC came to 64 µg/mL with Pseudomonas aeruginosa [2] (setting [15]); 64 µg/mL in the assay on Pseudomonas aeruginosa [2] (setting [16]); 64 µg/mL with Pseudomonas aeruginosa [2] (setting [17]); 128 µg/mL in the assay with Pseudomonas aeruginosa [2] (setting [18]); 4 µg/mL in the assay on Pseudomonas aeruginosa [2] (setting [19]); 32 µg/mL with Pseudomonas aeruginosa [2] (setting [20]). Moreover, the MIC with Pseudomonas aeruginosa [2] (setting [21]) is 64 µg/mL; with Pseudomonas aeruginosa [2] (setting [22]), 64 µg/mL; with Pseudomonas aeruginosa [2] (setting [23]) it was 64 µg/mL; in the assay with Pseudomonas aeruginosa [2] (setting [24]) it was 128 µg/mL; with Pseudomonas aeruginosa [2] (setting [25]), 8 µg/mL; with Pseudomonas aeruginosa [2] (setting [26]) it was 32 µg/mL.
Take `C=O` [Formaldehyde]: the resistance result with Pseudomonas aeruginosa [1] (setting [3]), in the assay with Pseudomonas aeruginosa [1] (setting [4]), with Pseudomonas aeruginosa [1] (setting [5]), in the assay with Pseudomonas aeruginosa [1] (setting [6]), in the assay on Pseudomonas aeruginosa [1] (setting [7]) and with Pseudomonas aeruginosa [1] (setting [8]) was “S” throughout. The resistance result in the assay with Pseudomonas aeruginosa [1] (setting [9]), in the assay with Pseudomonas aeruginosa [1] (setting [10]), with Pseudomonas aeruginosa [1] (setting [11]), with Pseudomonas aeruginosa [1] (setting [12]), with Pseudomonas aeruginosa [1] (setting [13]) and with Pseudomonas aeruginosa [1] (setting [14]) was “S” in each case.
With `CC1(C)S[C@@H]2[C@H](NC(=O)[C@H](NC(=O)c3cnc4cccnc4c3O)c3ccccc3)C(=O)N2[C@H]1C(=O)O` [APALCILLIN, apalcillin], the MIC came out at 32 µg/mL in the assay on Pseudomonas aeruginosa [2] (setting [15]); 32 µg/mL with Pseudomonas aeruginosa [2] (setting [16]); 8 µg/mL in the assay on Pseudomonas aeruginosa [2] (setting [17]); 16 µg/mL in the assay on Pseudomonas aeruginosa [2] (setting [18]); 2 µg/mL in the assay with Pseudomonas aeruginosa [2] (setting [19]); 8 µg/mL in the assay with Pseudomonas aeruginosa [2] (setting [20]). Also, the MIC with Pseudomonas aeruginosa [2] (setting [21]) came out at 32 µg/mL; in the assay with Pseudomonas aeruginosa [2] (setting [22]), 64 µg/mL; in the assay with Pseudomonas aeruginosa [2] (setting [23]) it was 16 µg/mL; in the assay on Pseudomonas aeruginosa [2] (setting [24]) it was 16 µg/mL; in the assay on Pseudomonas aeruginosa [2] (setting [25]), 4 µg/mL; with Pseudomonas aeruginosa [2] (setting [26]) it was 16 µg/mL.
As to `CC(C)(O/N=C(\C(=O)N[C@@H]1C(=O)N2C(C(=O)[O-])=C(C[n+]3ccccc3)CS[C@H]12)c1csc(N)n1)C(=O)O` [CAFTAZIDIME, ceftazidime], the MIC stood at 4 µg/mL in the assay with Pseudomonas aeruginosa [2] (read-out: MIC (average MIC value), + LiF 1 mg/l, strain lic R βLac^+ OXA); 2 µg/mL in the assay with Pseudomonas aeruginosa [2] (read-out: MIC (average MIC value), + LiF 1 mg/l, strain lic R βLac^+ PSE); 4 µg/mL in the assay on Pseudomonas aeruginosa [2] (read-out: MIC (average MIC value), + LiF 1 mg/l, strain lic R βLac^+ TEM); 32 µg/mL with Pseudomonas aeruginosa [2] (read-out: MIC (average MIC value), + LiF 1 mg/l, strain lic R βLac^+ cephalosporinase); 2 µg/mL with Pseudomonas aeruginosa [2] (read-out: MIC (average MIC value), + LiF 1 mg/l, strain lic S βLac^- (first column)); 4 µg/mL in the assay with Pseudomonas aeruginosa [2] (read-out: MIC (average MIC value), + LiF 1 mg/l, strain lic S βLac^- (second column)). Also, the MIC was 4 µg/mL in the assay on Pseudomonas aeruginosa [2] (read-out: MIC (average MIC value), alone, strain lic R βLac^+ OXA); 2 µg/mL in the assay with Pseudomonas aeruginosa [2] (read-out: MIC (average MIC value), alone, strain lic R βLac^+ PSE); 4 µg/mL in the assay with Pseudomonas aeruginosa [2] (read-out: MIC (average MIC value), alone, strain lic R βLac^+ TEM); 32 µg/mL in the assay with Pseudomonas aeruginosa [2] (read-out: MIC (average MIC value), alone, strain lic R βLac^+ cephalosporinase); 4 µg/mL with Pseudomonas aeruginosa [2] (read-out: MIC (average MIC value), alone, strain lic S βLac^- (first column)); 4 µg/mL in the assay on Pseudomonas aeruginosa [2] (read-out: MIC (average MIC value), alone, strain lic S βLac^- (second column)).
